Assay results published in the supplement of paper PMC10307832.

Assays:
Assay in all cases: relative viability (nuclei count vs DMSO), 5 days (fraction); higher = more cells survive
NCI-H1975 = test system: NCI-H1975
Summary of the method: (§1)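 Relative viability equals treated-well nuclei counts divided by vehicle-well nuclei counts. Counts came from 4× images of lung cancer cell lines grown in 1536-well plates for 5 days after pin-tool dosing on the day after seeding. Dosing used one drug alone or a fixed anchor-drug dose plus five library-drug doses (not always all listed) in √10 steps, and values are medians of duplicate plates.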

EPLC-272H = test system: EPLC-272H
Summary of the method: as §1

HCC-827 = test system: HCC-827
Summary of the method: as §1

SW 1573 = test system: SW 1573
Summary of the method: as §1

HCC-78 = test system: HCC-78
Summary of the method: as §1

ChaGo-K-1 = test system: ChaGo-K-1
Summary of the method: as §1

NCI-H2126 = test system: NCI-H2126
Summary of the method: as §1

LXF-289 = test system: LXF-289
Summary of the method: as §1

PC-14 = test system: PC-14
Summary of the method: as §1

NCI-H2405 = test system: NCI-H2405
Summary of the method: as §1

Question: For `CCN(CC)CCCCNc1ncc2cc(-c3cc(OC)cc(OC)c3)c(NC(=O)NC(C)(C)C)nc2n1` + CC1(C)CCC(c2ccc(Cl)cc2)=C(CN2CCN(c3ccc(C(=O)NS(=O)(=O)c4ccc(N[C@H](CCN5CCOCC5)CSc5ccccc5)c(S(=O)(=O)C(F)(F)F)c4)cc3)CC2)C1 [Navitoclax] (partner 0.5 µM), which relative viability (NCI-H1975; first compound 0.03162 µM) is on record?
Answer: 1.13

Question: And the relative viability (NCI-H1975; first compound 0.1 µM)?
Answer: 1.14

Question: And the relative viability (NCI-H1975; first compound 0.3162 µM)?
Answer: 1.23

Question: What about the relative viability (NCI-H1975; first compound 1 µM) of the same compound?
Answer: 0.87

Question: What about the relative viability (EPLC-272H; first compound 0.01 µM) of the same compound?
Answer: 1.14

Question: What about the relative viability (EPLC-272H; first compound 0.1 µM) of the same compound?
Answer: 1.07

Question: And the relative viability (EPLC-272H; first compound 0.3162 µM)?
Answer: 1.29

Question: What about the relative viability (EPLC-272H; first compound 1 µM) of the same compound?
Answer: 0.995

Question: What about the relative viability (HCC-827; first compound 0.01 µM) of the same compound?
Answer: 1.06

Question: And the relative viability (HCC-827; first compound 0.03162 µM)?
Answer: 0.981

Question: What about the relative viability (HCC-827; first compound 0.1 µM) of the same compound?
Answer: 1.05

Question: And the relative viability (HCC-827; first compound 0.3162 µM)?
Answer: 0.993

Question: And the relative viability (HCC-827; first compound 1 µM)?
Answer: 1.02

Question: What about the relative viability (SW 1573; first compound 0.01 µM) of the same compound?
Answer: 0.958

Question: What about the relative viability (SW 1573; first compound 0.03162 µM) of the same compound?
Answer: 0.963

Question: And the relative viability (SW 1573; first compound 0.1 µM)?
Answer: 1.31

Question: What about the relative viability (SW 1573; first compound 0.3162 µM) of the same compound?
Answer: 1.25

Question: And the relative viability (SW 1573; first compound 1 µM)?
Answer: 1.01

Question: And the relative viability (HCC-78; first compound 0.03162 µM)?
Answer: 0.75

Question: What about the relative viability (HCC-78; first compound 0.1 µM) of the same compound?
Answer: 0.618

Question: And the relative viability (HCC-78; first compound 0.3162 µM)?
Answer: 0.809

Question: What about the relative viability (HCC-78; first compound 1 µM) of the same compound?
Answer: 0.64

Question: And the relative viability (ChaGo-K-1; first compound 0.01 µM)?
Answer: 0.844

Question: What about the relative viability (ChaGo-K-1; first compound 0.03162 µM) of the same compound?
Answer: 0.893

Question: What about the relative viability (ChaGo-K-1; first compound 0.1 µM) of the same compound?
Answer: 1.49

Question: What about the relative viability (ChaGo-K-1; first compound 0.3162 µM) of the same compound?
Answer: 1.16

Question: And the relative viability (ChaGo-K-1; first compound 1 µM)?
Answer: 0.716

Question: What about the relative viability (NCI-H2126; first compound 0.01 µM) of the same compound?
Answer: 0.904

Question: And the relative viability (NCI-H2126; first compound 0.03162 µM)?
Answer: 0.845

Question: What about the relative viability (NCI-H2126; first compound 0.1 µM) of the same compound?
Answer: 0.916

Question: What about the relative viability (NCI-H2126; first compound 0.3162 µM) of the same compound?
Answer: 0.927

Question: What about the relative viability (NCI-H2126; first compound 1 µM) of the same compound?
Answer: 0.828

Question: What about the relative viability (LXF-289; first compound 0.01 µM) of the same compound?
Answer: 1.02

Question: And the relative viability (LXF-289; first compound 0.03162 µM)?
Answer: 0.968

Question: What about the relative viability (LXF-289; first compound 0.1 µM) of the same compound?
Answer: 1.07

Question: What about the relative viability (LXF-289; first compound 0.3162 µM) of the same compound?
Answer: 0.939

Question: What about the relative viability (LXF-289; first compound 1 µM) of the same compound?
Answer: 0.834

Question: And the relative viability (PC-14; first compound 0.01 µM)?
Answer: 1.11

Question: What about the relative viability (PC-14; first compound 0.03162 µM) of the same compound?
Answer: 1.06

Question: What about the relative viability (PC-14; first compound 0.1 µM) of the same compound?
Answer: 1.15

Question: What about the relative viability (PC-14; first compound 0.3162 µM) of the same compound?
Answer: 1.01

Question: What about the relative viability (PC-14; first compound 1 µM) of the same compound?
Answer: 0.985

Question: And the relative viability (NCI-H2405; first compound 0.01 µM)?
Answer: 0.707

Question: What about the relative viability (NCI-H2405; first compound 0.03162 µM) of the same compound?
Answer: 0.772

Question: And the relative viability (NCI-H2405; first compound 0.1 µM)?
Answer: 0.853

Question: And the relative viability (NCI-H2405; first compound 0.3162 µM)?
Answer: 0.901

Question: And the relative viability (NCI-H2405; first compound 1 µM)?
Answer: 0.789
